Values quoted from earlier work as cited in US11844836B2, “Topical pharmaceutical composition based on semifluorinated alkanes” (DERMALIQ THERAPEUTICS, INC., priority 2011, dated 2023).

Conditions: testosterone as model drug; pig skin; Hardung, Doctoral Thesis 2008, p. 103

For CCCCCCCCC(F)(F)C(F)(F)C(F)(F)C(F)(F)C(F)(F)C(F)(F)F [F6H8], the “penetration-enhancing effect of the SFA carrier” value is given as “does not affect an improved penetration into the skin”.
